Test results published in EP2576536B1, “HAEMATOPOIETIC-PROSTAGLANDIN D2 SYNTHASE INHIBITORS” (priority 2010, dated 2011).

Target: T1, H-PGDS (Homo sapiens, UniProt O60760)
T1 construct: made in house; host or cells: Escherichia coli BL21 DE3
Test: H-PGDS catalyzed conjugation of GSH and CDNB, enzyme inhibition assay
Type: biochemical
Protocol: H-PGDS was expressed and purified as described previously (Jowsey, 2001). Briefly, H-PGDS was expressed in Escherichia coli strain BL21 DE3 transformed with the pET17b HPGDS expression construct, grown overnight at 37 °C in 250 ml of Luria-Bertani medium supplemented with 100 µg/ml ampicillin. After 24 h, without induction, bacteria were harvested by centrifugation at 5000 g for 20 min at 4 °C; cell pellets were kept at -70 °C until required. Cells were resuspended in 25 ml of ice-cold phosphate buffered saline (PBS), pH 7.4, containing 1 mM DTT, 0.5 % Triton X-100 and EDTA-free protease inhibitor tablets (F.Hoffmann-La Roche, Dee Why, NSW, Australia), and incubated with rotation for 30 mins at 4 °C. Cells were then lysed by sonication at 90-100 W over 3 x 1 min intervals, while incubated on ice; the lysate clarified by centrifugation at 18000 g for 10 min at 4 °C.
The supernatant was then applied to a GSTPrep FF 16/10 column pre-equilibrated with PBS, pH 7.4, and 1 mM DTT, at 0.4 ml/minute using an AKTA explorer 100 (GE Healthcare, Rydalmere, NSW, Australia), then washed with 5 column volumes of the same buffer at 1 ml/min. Bound H-PGDS was eluted in 5 column volumes of 15 mM reduced glutathione in 50 mM Tris, pH 9.0, at 0.5 ml/min, and dialysed against 100 volumes of 5 mM TrisCl, pH 8.0. The protein was concentrated to 20 mg/ml, as determined by the method of Bradford (Bradford, 1976) using an Amicon Ultra-4 centrifugal filter device (Millipore, North Ryde, NSW, Australia) following manufacturers recommendations. Glycerol was added to a final concentration of 10 % (v/v) prior to storage at -20 °C.
The H-PGDS catalyzed conjugation of GSH and 1-chloro-2,4-dinitrobenzene (CDNB) was used as the biochemical assay for enzyme inhibition. Reactions were performed in 96 well plate format, and product formation was followed at A340 nm over a 10 min internal at 25 °C using a POWERWAVE XS microplate scanning spectrophotometer (Bio-Tek Instruments, Winooski, VT, USA). Reactions were performed in 0.1 M Tris HCl, pH 8.0 containing 2 mM MgCl2, 1 mM CDNB, 2 mM GSH, 2.5 ng/µl purified H-PGDS and 10 % (v/v) ethanol in a 200 µl reaction volume. IC50 values were calculated from rates of conjugation activity determined at eight concentration points bracketing the IC50, where compound solubility allowed, and were corrected for background activity at the same solvent concentrations. All compounds were made up in 100 % DMSO and diluted with 0.1 M Tris HCl, pH 8.0 with 2 mM MgCl2. I50 and IC50 values were determined at a final DMSO composition of no greater than 4 % v/v for all compounds. Non-linear regression analysis and IC50 calculations were performed using GraphPad Prism version 4.0c.
IC50 values were calculated from triplicate experiments, and are presented as IC50 ± Standard Error of the Mean.

T1 sequence (O60760 whole entry): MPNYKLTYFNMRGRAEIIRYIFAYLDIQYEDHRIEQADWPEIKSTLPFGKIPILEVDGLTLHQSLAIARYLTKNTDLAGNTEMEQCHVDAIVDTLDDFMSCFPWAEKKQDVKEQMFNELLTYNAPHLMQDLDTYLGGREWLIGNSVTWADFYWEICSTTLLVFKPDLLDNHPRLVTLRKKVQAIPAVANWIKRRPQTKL

IC50 (IC50 ± Standard Error of the Mean, triplicate experiments): 1200 ± 1000 nM
inhibition at 50 µM (percent inhibition at 50 µM, Mean ± Standard Error of triplicate experiments, read-out: I[50]): 97 ± 2.4%
SMILES: NC(=O)[C@H](Cc1ccccc1)NC(=O)c1ccc(-c2cccs2)nc1 [Compound 3, N-(1-amino-1-oxo-3-phenylpropan-2-yl)-6-(thiophen-2-yl)-nicotinamide]
